ChEMBL document CHEMBL3611979, “Design, synthesis and biological characterization of selective LIMK inhibitors” (Bioorg Med Chem Lett, 2015)

Experiments:
[1] = target: LIM domain kinase 2 (Homo sapiens, UniProt P53671); test: Inhibition of LIMK2 (unknown origin) by radiometric assay
[2] = target: cAMP-dependent protein kinase (PKA) (Homo sapiens, UniProt P22694+P17612+P22612); test: Inhibition of PKA (unknown origin) by radiometric assay; assay type: protein assay
[3] = target: LIM domain kinase 1 (Homo sapiens, UniProt P53667); test: Inhibition of LIMK1 (unknown origin) by radiometric assay
Sequence of LIM domain kinase 1 (P53667 whole entry, the tested form may be a part): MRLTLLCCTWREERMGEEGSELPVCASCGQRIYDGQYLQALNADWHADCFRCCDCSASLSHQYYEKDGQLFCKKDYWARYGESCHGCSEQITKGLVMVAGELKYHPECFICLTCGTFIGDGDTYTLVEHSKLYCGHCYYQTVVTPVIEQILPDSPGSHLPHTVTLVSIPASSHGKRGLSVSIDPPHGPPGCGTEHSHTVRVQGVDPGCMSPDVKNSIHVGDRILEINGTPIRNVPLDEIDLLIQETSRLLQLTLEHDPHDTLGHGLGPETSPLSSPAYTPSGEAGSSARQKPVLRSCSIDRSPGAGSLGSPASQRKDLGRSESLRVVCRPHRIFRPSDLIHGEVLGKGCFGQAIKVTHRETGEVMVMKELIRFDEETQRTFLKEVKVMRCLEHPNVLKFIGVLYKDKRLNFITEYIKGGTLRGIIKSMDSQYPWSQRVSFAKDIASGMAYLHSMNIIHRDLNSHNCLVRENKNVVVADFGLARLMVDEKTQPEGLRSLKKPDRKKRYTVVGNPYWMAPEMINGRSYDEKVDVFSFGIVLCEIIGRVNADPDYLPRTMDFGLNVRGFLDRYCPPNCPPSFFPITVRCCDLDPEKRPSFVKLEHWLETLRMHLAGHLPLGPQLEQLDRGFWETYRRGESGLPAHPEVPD

[4] = target: Rho-associated protein kinase 2 (Homo sapiens, UniProt O75116); test: Inhibition of ROCK2 (unknown origin) by radiometric assay
Sequence of Rho-associated protein kinase 2 (O75116 whole entry): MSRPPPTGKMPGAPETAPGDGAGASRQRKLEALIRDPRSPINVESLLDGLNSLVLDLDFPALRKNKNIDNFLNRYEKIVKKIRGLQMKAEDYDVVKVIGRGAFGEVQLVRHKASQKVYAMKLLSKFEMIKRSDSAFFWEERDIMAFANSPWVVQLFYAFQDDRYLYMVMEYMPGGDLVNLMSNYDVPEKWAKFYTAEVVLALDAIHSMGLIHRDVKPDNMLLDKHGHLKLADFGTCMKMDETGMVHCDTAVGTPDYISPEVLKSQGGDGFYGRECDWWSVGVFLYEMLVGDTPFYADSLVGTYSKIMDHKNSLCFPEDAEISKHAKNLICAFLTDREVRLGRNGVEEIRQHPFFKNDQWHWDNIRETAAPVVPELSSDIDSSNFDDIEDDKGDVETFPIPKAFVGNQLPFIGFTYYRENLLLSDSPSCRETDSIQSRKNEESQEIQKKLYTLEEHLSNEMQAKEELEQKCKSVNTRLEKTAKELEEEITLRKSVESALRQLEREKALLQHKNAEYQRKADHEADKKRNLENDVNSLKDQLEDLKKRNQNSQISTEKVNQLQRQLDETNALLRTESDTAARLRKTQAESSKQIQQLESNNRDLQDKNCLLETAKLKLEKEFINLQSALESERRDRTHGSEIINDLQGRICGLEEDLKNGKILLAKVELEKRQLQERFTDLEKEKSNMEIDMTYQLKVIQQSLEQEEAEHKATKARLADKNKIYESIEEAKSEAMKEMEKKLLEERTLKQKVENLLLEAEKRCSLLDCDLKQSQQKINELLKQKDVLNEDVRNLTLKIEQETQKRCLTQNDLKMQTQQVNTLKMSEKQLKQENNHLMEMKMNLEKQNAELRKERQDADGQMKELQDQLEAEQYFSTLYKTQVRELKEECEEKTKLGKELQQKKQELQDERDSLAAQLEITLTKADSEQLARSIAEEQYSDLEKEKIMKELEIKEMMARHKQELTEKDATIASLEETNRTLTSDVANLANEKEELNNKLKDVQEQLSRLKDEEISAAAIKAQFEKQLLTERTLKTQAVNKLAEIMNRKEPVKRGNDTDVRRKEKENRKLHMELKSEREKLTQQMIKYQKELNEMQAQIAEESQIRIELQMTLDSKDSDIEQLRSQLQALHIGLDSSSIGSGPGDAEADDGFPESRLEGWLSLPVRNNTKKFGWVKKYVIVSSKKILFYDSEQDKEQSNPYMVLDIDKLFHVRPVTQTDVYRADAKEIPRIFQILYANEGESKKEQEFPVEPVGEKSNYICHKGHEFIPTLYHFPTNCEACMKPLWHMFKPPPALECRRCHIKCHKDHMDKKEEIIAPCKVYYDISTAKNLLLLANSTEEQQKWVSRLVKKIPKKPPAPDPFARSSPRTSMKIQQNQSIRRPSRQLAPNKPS

[5] = Inhibition of LIMK in human HeLa cells assessed as reduction in cofilin Ser3 phosphorylation by sandwich immunoassay; assay type: cell-based
[6] = target: RAC-alpha serine/threonine-protein kinase (Homo sapiens, UniProt P31749); test: Inhibition of AKT1 (unknown origin) by radiometric assay
Sequence of RAC-alpha serine/threonine-protein kinase (P31749 whole entry): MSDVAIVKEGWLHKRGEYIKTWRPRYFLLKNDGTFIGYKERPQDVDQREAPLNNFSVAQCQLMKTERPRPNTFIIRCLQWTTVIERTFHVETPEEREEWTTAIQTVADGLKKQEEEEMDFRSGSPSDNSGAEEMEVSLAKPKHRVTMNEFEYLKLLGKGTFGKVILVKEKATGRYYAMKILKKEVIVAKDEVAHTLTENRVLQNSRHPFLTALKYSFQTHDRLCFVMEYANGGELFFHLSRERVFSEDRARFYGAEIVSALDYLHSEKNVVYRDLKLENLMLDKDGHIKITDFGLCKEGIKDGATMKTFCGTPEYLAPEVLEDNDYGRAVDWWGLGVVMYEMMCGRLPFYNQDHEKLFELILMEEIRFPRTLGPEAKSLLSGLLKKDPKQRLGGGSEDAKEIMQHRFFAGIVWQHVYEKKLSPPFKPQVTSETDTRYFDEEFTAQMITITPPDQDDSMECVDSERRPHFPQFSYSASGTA

[7] = Inhibition of ROCK in rat A7r5 cells assessed as reduction in MLC Thr18/Ser19 phosphorylation by direct-ELISA method; assay type: cell-based
[8] = system: Oryctolagus cuniculus; test: Toxicity in ocular normotensive New Zealand White rabbit assessed as induction of conjunctival hyperemia at 200 µg/eye drop dosed as single topical administration measured 1 to 6 hrs post compound instillation; assay type: organism-based, Conjunctiva; conditions: in vivo, topical_or_ocular

Sequence of LIM domain kinase 2 (P53671 whole entry, the tested form may be a part): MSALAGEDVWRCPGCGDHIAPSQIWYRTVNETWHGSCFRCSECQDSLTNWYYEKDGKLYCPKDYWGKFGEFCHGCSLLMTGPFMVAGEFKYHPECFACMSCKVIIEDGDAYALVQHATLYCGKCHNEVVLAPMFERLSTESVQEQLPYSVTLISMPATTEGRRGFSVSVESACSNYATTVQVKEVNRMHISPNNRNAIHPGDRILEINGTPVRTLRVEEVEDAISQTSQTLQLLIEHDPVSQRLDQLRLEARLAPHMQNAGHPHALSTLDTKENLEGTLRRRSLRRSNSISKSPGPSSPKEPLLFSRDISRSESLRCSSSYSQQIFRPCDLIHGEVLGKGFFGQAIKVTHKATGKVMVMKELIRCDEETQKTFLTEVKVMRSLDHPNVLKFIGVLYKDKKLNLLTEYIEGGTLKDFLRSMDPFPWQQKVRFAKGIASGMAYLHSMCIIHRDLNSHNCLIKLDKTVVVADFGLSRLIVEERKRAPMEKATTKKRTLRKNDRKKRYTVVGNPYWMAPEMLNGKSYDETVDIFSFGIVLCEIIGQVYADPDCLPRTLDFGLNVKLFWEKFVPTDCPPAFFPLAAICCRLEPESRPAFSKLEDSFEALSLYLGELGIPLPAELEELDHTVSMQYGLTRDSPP

Compound | IC50 [1] [nM] | IC50 [2] [nM] | IC50 [3] [nM] | IC50 [4] [nM] | EC50 [5] [nM] | IC50 [6] [nM] | EC50 [7] [nM] | Activity [8]
COC(=O)c1cccc(NC(=O)C2(N)CCN(c3ncnc4[nH]cc(C)c34)CC2)c1 | 7.4 | 81 | 18 | 100 |  |  |  | 
CCC(C)OC(=O)c1cccc(NC(=O)C2(CN(C)C)CCN(c3ncnc4[nH]cc(C)c34)CC2)c1 (stereo not given) | 4.6 | 24 | 50 | 137 |  |  |  | 
COC(=O)c1cccc(NC(=O)C2(CN(C)C)CCN(c3ccnc4[nH]ncc34)CC2)c1 | 274 | 3.8 | 65 | 11 |  |  |  | 
COC(=O)c1cccc(NC(=O)C2(CN(C)C)CCN(c3ncnc4[nH]c(C)cc34)CC2)c1 | 8 | 332 | 23 | 652 |  |  |  | 
Cc1c[nH]c2ncnc(N3CCC(CN(C)C)(C(=O)Nc4cccc(C(=O)OC(C)C)c4)CC3)c12 | 2.2 | 22 | 41 | 53 |  |  |  | 
COC(=O)c1cccc(NC(=O)C2(N)CCN(c3ccnc(N)n3)CC2)c1 | > 10000 | > 1000 | > 1000 | 416 |  |  |  | 
C#CCOC(=O)c1cccc(NC(=O)C2(CN(C)C)CCN(c3ncnc4[nH]cc(C)c34)CC2)c1 | < 1 | 2.2 | 7.6 | 16 |  |  |  | 
COC(=O)c1cccc(NC(=O)C2(N(C)C)CCN(c3ncnc4[nH]cc(C)c34)CC2)c1 | 12 | 150 | 37 | 63 |  |  |  | 
Cc1c[nH]c2ncnc(N3CCC(CN(C)C)(C(=O)Nc4cccc(OC(=O)N(C)C)c4)CC3)c12 | < 1 | 2.6 | 19 | 40 |  |  |  | 
COC(=O)c1cccc(NC(=O)C2(CN(C)C)CCN(c3ncnc4c3CC(=O)N4)CC2)c1 | 1860 | 1130 | 1000 | > 10000 |  |  |  | 
COC(=O)c1cccc(NC(=O)C2(CN(C)C)CCN(c3ncnc4[nH]ncc34)CC2)c1 | 193 | 5.1 | 282 | 62 |  |  |  | 
COC(=O)c1cccc(NC(=O)C2(CN(C)C)CCN(c3ncnc4[nH]cc(C)c34)CC2)c1 | 1.5 | 24 | 27 | 8.9 |  |  |  | 
Cc1[nH]c2ncnc(N3CCC(CN(C)C)(C(=O)Nc4cccc(OC(=O)N(C)C)c4)CC3)c2c1C | 1.4 | > 1000 | 22 | > 1000 | 9 | > 1000 | > 10000 | 
COC(=O)c1cccc(NC(=O)C2(N)CCN(c3ncnc4[nH]ccc34)CC2)c1 | 9.6 | 69 | 31 | 67 |  |  |  | 
COC(=O)c1cccc(NC(=O)C2(N)CCN(c3ccnc(NC(C)=O)n3)CC2)c1 | > 10000 | > 1000 | > 10000 | > 1000 |  |  |  | 
Cc1c[nH]c2ncnc(N3CCC(CN)(C(=O)Nc4cccc(OC(=O)N(C)C)c4)CC3)c12 [LX-7101] | 1.6 | < 1 |  | 10 | 8.7 | < 1 | 2300 | Toxic
COC(=O)COc1cccc(NC(=O)C2(CN(C)C)CCN(c3ncnc4[nH]cc(C)c34)CC2)c1 | < 1 | 5.4 | 38 | 7.9 |  |  |  | 

Now from value to compound, other results behind:

IC50 [1] [nM] | IC50 [2] [nM] | IC50 [3] [nM] | IC50 [4] [nM] | Compound | EC50 [5] [nM] | IC50 [6] [nM] | EC50 [7] [nM] | Activity [8]
> 10000 | > 1000 | > 1000 | > 1000 | COC(=O)c1cccc(NC(=O)C2(N)CCN(c3ccncn3)CC2)c1 |  |  |  | 
494 | > 1000 | 239 | > 1000 | COC(=O)c1cccc(NC(=O)C2(N)CCN(c3cc(NC(C)=O)ncn3)CC2)c1 |  |  |  | 
2.1 | 5.8 | 50 | 41 | CCCOC(=O)c1cccc(NC(=O)C2(CN(C)C)CCN(c3ncnc4[nH]cc(C)c34)CC2)c1 |  |  |  | 
< 1 | < 1 | 16 | < 1 | COC(=O)c1cccc(NC(=O)C2(CN)CCN(c3ncnc4[nH]cc(C)c34)CC2)c1 |  |  |  | 
13 | 1.1 | 23 | 1.8 | COC(=O)c1cccc(NC(=O)C2(CN(C)C)CCN(c3ncnc4[nH]ccc34)CC2)c1 |  |  |  | 
1.6 | > 1000 | 26 | > 1000 | COC(=O)c1cccc(NC(=O)C2(CN(C)C)CCN(c3ncnc4[nH]c(C)c(C)c34)CC2)c1 |  | > 1000 | > 10000 | 
< 1 | 7 | 57 | 56 | COC(=O)Cc1cccc(NC(=O)C2(CN(C)C)CCN(c3ncnc4[nH]cc(C)c34)CC2)c1 |  |  |  | 
2.8 | < 1 | 20 | 5.7 | COC(=O)c1cccc(NC(=O)C2(CN(C)C)CCN(c3ncnc4[nH]cc(F)c34)CC2)c1 |  |  |  | 
4 | < 1 | 25 | 2.5 | COC(=O)c1cccc(NC(=O)C2(CN(C)C)CCN(c3ncnc4[nH]cc(C#N)c34)CC2)c1 |  |  |  | 
4560 | > 1000 | 945 | 2060 | COC(=O)c1cccc(NC(=O)C2(N)CCN(c3cc(N)ncn3)CC2)c1 |  |  |  | 
7.7 | 2.7 | 41 | 7.2 | COC(=O)c1ccc(NC(=O)C2(CN(C)C)CCN(c3ncnc4[nH]cc(C)c34)CC2)cc1 |  |  |  | 
